In patent US10335449B2, “Rho associated kinase (ROCK) inhibitors and their use in treating disease” (UNIVERSITY OF HOUSTON SYSTEM, priority 2014, dated 2019):
Values joined by “and” are separate entries in the source; they are usually repeats but may differ in a detail not shown here. Equal values may be shown once. “Also recorded” adds a separate entry of the source. One block for each compound: values may come before it. No end group written: not given here.

What was measured:
cellular cytoskeleton = experiment: Cellular cytoskeleton disruption in cell culture; type: cell-based; details: added to cell culture medium
Description: Peptides25 was synthesized and one of which contained a fusion of the N′ end terminal TAT sequence (TATpeptide25), which allows peptides and proteins easy entry into cells.
Peptides25 was synthesized and an additional synthesis which contained a fusion of the N′ end terminal TAT sequence (TATpeptide25), which allows peptides and proteins easy entry into cells. […] The TAT polypeptide sequence alone was ineffective. At the cellular level, the cell cytoskeleton changed after TATpeptide25 was introduced into cell culture medium as expected, since ROCK is a mediator for cell morphology and cell migration.

ROCK1 = ROCK1 (Homo sapiens, UniProt Q13464); experiment: Luciferase assay of peptide25 fragments and alanine substitutions; type: biochemical
Chain of ROCK1 (Q13464 whole entry, species assumed, the tested form may be a part): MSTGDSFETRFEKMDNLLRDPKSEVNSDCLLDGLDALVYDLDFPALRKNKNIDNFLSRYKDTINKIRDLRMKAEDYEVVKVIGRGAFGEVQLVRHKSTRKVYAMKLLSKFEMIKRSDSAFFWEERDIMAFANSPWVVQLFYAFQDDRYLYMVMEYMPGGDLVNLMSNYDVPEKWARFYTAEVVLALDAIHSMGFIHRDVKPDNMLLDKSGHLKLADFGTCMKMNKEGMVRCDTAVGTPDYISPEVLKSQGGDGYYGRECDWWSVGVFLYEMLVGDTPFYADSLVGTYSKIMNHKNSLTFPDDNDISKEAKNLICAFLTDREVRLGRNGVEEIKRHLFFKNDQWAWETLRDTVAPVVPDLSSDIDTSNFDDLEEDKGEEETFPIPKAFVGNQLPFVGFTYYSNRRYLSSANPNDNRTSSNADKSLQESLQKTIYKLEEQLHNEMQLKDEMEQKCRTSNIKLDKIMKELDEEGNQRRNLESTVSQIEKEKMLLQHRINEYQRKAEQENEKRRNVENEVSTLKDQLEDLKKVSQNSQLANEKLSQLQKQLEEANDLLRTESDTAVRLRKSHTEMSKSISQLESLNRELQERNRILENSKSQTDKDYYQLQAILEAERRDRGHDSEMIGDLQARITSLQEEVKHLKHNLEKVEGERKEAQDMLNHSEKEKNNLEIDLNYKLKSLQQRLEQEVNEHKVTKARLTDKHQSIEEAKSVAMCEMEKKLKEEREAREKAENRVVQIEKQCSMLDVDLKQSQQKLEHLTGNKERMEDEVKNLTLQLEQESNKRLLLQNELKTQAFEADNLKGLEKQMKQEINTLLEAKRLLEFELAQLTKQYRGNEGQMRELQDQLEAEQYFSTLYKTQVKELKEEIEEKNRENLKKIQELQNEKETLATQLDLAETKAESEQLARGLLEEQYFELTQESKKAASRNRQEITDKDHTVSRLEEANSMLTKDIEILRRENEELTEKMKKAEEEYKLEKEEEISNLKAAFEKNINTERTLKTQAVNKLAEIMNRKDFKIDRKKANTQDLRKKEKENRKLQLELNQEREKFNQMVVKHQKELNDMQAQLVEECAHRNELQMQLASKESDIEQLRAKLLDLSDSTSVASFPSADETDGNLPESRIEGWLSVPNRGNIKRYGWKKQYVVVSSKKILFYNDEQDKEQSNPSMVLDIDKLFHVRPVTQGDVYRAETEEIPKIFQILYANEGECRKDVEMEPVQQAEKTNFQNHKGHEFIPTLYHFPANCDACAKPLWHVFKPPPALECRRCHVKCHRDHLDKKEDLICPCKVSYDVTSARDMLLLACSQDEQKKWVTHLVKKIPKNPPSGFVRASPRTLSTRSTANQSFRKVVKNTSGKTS
Method: (Right panel) Likewise the alanine substitution at positions Y4, S5, P6, and S7 all reduced the effectiveness of peptide25.
The peptide25 was divided into fragments; ERTYS (F1; SEQ ID NO: 3), YSPST (F2; SEQ ID NO: 4), and STAVRS (F3; SEQ ID NO: 2). […] Additionally, an alanine substitution was performed at each position to look for amino acids that putatively might be important to binding and when replaced reduced the response.

[1] = test system: aortic rings contracted with U46619; experiment: Aortic ring contractility assay (ring bath, U46619); parameters: species or system mice
Method: Channel evaluation of concentrations 150, 200, 300, 100, 250, and 50 μM. Channel 7 (last graph) is the control.
Aortas were collected from adult mice, removed the surrounding fat tissues and installed the freshly cut rings in 2 mm sections on the isometric transducer apparatus. After adjusting the rings tension through series of contraction and relaxation, the rings were constricted 3 times with the 40 mM KCl to achieve consistent contraction. In order to find the effective contraction inducing dose of U46619, following the relaxation of the rings after the KCl contraction, the rings were subjected to contraction by adding different doses of U46619, a vasoconstrictor. 1-3 nM U46619 was chosen do the further experiments. […] Second dose of U46619 was applied to contract the ring. The affection was measured by the difference of the highest response of U46619 with and without Pep25-P2. […] One ring had 26% decreasing, the other had 40% decreasing.

[2] = test system: cell movement into the wound (ROCK1); experiment: Wound healing scratch test; type: cell-based; details: for percent of healing (mean): standard scratch test, at least N=5 trials, control mean 17.4
Method: Peptide25 change in perimeter (mean: 15%; p-value: 0.03) was evaluated for 4 separate experiments with each having 3 trials for a total of 12 measurements. These experiments included two controls, one with no treatment the other with only the TAT peptide.
Peptide fragments were chosen based on the information from analysis of critical residues and the candidate sequences Pep25-A AAYSPST (Pep25-A; SEQ ID NO: 62) and ERTYSPS (Pep25-P2; SEQ ID NO: 69) were evaluated again using a wound healing scratch test.

ROCK = ROCK and S6 substrate reaction followed by mass spectrum; type: biochemical
Chain of ROCK (Q13464 6-415 limits assumed): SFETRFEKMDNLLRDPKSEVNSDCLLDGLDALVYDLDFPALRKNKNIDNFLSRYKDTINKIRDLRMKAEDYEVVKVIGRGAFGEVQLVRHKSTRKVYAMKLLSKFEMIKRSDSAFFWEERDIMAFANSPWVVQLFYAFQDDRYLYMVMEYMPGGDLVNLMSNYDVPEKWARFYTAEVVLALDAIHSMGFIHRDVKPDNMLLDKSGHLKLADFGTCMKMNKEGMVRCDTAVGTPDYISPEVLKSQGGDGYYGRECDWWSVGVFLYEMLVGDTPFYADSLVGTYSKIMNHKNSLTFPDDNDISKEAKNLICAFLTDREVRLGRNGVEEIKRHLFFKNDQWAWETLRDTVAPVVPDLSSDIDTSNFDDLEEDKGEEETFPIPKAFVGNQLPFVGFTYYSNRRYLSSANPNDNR
Method: FIG. 10—(Left panel) Mass spectrum, two peaks labeled as S6 and pS6 were non-phosphorylated and phosphorylated S6 from ROCK reaction mixture. Following the decreasing concentration of Pep25-P2, the phosphorylated peak pS6 was increasing. (Right panel) S6 conversion ratios were calculated by phosphorylated peak area divided by the sum of phosphorylated and non-phosphorylated peaks' areas.
To determine its inhibition at substrate conversion, different concentrations of Pep25-P2 was added to a ROCK and S6 (substrate) reaction mixture. In MS data, peaks representing phosphorylated and non-phosphorylated S6 substrates were then identified (FIG. 10).

protein kinase A = details: cited from earlier work
citron kinase = citron kinase (Homo sapiens, UniProt O14578); details: cited from earlier work
Chain of citron kinase (O14578 whole entry): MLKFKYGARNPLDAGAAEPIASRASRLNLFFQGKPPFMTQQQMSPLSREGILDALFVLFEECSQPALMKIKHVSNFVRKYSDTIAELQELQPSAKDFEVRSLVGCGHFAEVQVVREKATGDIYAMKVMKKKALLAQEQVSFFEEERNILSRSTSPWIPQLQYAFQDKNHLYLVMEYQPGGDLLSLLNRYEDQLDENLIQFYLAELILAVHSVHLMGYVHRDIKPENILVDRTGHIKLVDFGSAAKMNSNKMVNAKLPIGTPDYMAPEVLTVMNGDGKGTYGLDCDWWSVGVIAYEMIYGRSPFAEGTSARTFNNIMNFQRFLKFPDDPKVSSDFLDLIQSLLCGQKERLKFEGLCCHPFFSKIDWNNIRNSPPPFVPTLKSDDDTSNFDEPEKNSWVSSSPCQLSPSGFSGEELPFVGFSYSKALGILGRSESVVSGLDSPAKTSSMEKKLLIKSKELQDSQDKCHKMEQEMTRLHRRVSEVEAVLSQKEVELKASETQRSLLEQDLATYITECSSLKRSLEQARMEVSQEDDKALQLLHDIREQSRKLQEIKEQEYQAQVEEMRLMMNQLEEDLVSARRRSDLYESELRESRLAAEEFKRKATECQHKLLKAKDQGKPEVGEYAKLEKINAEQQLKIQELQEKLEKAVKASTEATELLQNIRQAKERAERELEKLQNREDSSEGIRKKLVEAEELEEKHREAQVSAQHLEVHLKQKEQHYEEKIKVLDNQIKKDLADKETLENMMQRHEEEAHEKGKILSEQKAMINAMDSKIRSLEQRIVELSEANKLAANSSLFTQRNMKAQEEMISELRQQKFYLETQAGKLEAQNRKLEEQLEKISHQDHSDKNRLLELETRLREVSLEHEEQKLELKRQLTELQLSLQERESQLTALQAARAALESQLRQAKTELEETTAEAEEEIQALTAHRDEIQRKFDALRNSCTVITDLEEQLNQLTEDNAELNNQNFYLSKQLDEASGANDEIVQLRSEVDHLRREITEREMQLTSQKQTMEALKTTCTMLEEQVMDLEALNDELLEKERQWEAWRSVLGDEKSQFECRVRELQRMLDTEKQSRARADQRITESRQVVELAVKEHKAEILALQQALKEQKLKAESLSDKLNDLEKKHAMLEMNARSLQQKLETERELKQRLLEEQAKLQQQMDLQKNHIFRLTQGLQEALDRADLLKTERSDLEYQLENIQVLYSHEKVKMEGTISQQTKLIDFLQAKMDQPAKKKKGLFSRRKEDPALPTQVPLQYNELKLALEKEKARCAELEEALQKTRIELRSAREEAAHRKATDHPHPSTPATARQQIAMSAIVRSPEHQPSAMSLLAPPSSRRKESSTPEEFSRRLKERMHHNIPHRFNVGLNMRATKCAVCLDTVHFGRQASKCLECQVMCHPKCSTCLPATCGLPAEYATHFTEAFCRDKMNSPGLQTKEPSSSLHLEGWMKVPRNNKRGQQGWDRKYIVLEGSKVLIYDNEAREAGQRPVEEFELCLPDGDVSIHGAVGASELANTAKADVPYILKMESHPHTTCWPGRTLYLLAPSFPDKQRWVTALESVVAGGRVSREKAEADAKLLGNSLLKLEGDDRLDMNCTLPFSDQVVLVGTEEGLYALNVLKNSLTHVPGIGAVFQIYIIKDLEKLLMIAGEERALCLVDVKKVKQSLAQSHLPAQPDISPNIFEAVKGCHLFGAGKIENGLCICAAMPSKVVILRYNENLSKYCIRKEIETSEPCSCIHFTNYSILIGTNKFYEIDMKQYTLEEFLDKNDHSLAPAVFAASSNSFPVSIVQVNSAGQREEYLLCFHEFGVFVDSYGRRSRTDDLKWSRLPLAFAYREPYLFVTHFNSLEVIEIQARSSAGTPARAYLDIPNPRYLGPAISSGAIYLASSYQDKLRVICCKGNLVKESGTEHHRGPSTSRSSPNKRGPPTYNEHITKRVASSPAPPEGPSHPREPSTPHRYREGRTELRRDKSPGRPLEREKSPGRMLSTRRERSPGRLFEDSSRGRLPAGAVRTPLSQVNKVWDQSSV

ROCK2 = ROCK2 (Homo sapiens, UniProt O75116); experiment: Surface Plasmon Resonance binding (BiaCore); details: SPR, data not shown
Description: FIG. 6—Determination of binding affinity of TATpeptide25. Proteins MBP, ROCK2, ROCK1-553. ROCK1-415 Were immobilized on CM-5 chip and peptide binding affinity was monitored by BiaCore system. Peptide TAT was used as control to monitored non-specific binding.
Surface Plasmon Resonance (SPR) was used to measure peptide25 binding efficiency with ROCK.

[3] = biological target: T1, ROCK1 catalytic domain (MBP-ROCK1) (Homo sapiens, UniProt Q13464); experiment: ROCK1 autophosphorylation inhibition by phage-displayed peptides; type: biochemical; details: for ROCK autophosphorylation inhibition: high ATP levels (1 mM)
T1 construct: made in house
T1 sequence (Q13464 76-338 limits assumed, species assumed): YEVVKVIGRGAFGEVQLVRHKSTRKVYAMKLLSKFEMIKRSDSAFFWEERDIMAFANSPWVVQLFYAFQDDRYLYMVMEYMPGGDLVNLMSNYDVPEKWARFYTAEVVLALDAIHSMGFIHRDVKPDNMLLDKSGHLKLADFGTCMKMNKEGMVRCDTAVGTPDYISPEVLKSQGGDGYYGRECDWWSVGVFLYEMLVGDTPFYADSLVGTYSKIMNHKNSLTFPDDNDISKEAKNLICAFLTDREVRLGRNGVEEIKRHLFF
Method: The maltose binding protein fusion protein linked to the ROCK1 kinase domain (MBP-ROCK1) was incubated with a Ph.D-12 phage display library of 12 amino acids in length (New England Biolabs, Inc).
The ROCK1 catalytic domain (MBP-ROCK1) was linked to a maltose binding protein fusion protein and was incubated with a Ph.D-12 phage display library of 12 amino acids in length (New England Biolabs, Inc.).

Compound: TATpeptide25: peptide25 with a fusion of the N′ end terminal TAT sequence (ERTYSPSTAVRS; also: N-terminal TAT sequence fusion, not in given chain)
effect on cellular cytoskeleton (cellular cytoskeleton): disassociated or “melted” cellular cytoskeleton
effect on cellular cytoskeleton (cellular cytoskeleton; listed as TAT-end-labeled peptide25): melted cytoskeleton

Compound: STAVRS [F3]
inhibitory activity measured by luciferase assay (ROCK1): lost effectively; also recorded: did not confer an inhibitory response

Compound: ERTYSPS [Pep25-P2]
suppression of U46619 contractility ([1]; 50-300 μM, preincubation 20 min): showed suppression of contractility of U46619; also recorded: dose dependant response
decrease of highest U46619 contraction response ([1]; 200 and 300 μM preincubated 10 min, one ring each, 1-3 nM U46619): 26% and 40%
wound healing / ROCK1 inhibition in scratch test [2]: inhibited ROCK1 more effectively; also recorded: inhibited wound healing
effective dose from dose curve ([2]; scratch test dose response): 40 µM
percent of healing (mean) [2]: 13.1%
effect on cellular cytoskeleton (cellular cytoskeleton): disrupted actin exoskeleton formation
phosphorylation of substrate S6 by ROCK (conversion ratio) (ROCK; different concentrations of peptide in ROCK and S6 reaction mixture): repressed the phosphorylation of substrate S6 by ROCK
phosphorylation of the peptide by ROCK (ROCK; mass spectrum): couldn't be phosphorylated by ROCK

Compound: O=S(=O)(c1cccc2cnccc12)N1CCCNCC1 [Fusadil]
inhibition of protein kinase A (protein kinase A): also inhibit
inhibition of citron kinase (citron kinase): also inhibit

inhibitory activity measured by luciferase assay (ROCK1): retained its activity
Compound: ERTYS [F1]

inhibitory activity measured by luciferase assay (ROCK1): retained its activity
Compound: YSPST [F2]

Compound: ERTYSPSTAVRS [peptide25]
binding with ROCK1 as compared to ROCK2 (ROCK2): demonstrated some difference
ROCK autophosphorylation inhibition [3]: blocked ROCK autophosphorylation
ROCK1 activity ([3]; in the presence of mM ATP): blocked ROCK1 activity
autophosphorylated inhibition ([3]; phage display candidates): exhibited autophosphorylated inhibition
change in perimeter at the intersection of the scratch (mean) ([2]; 4 separate experiments, 3 trials each, 12 measurements, p-value 0.03): 15%

Compound: AAYSPST [Pep25-A]
percent of healing (mean) [2]: 15.1%

ROCK autophosphorylation inhibition [3]: blocked Y27632 inhibitory activity
Compound: C[C@@H](N)[C@H]1CC[C@H](C(=O)Nc2ccncc2)CC1 [Y27632]
inhibition of protein kinase A (protein kinase A): also inhibit
inhibition of citron kinase (citron kinase): also inhibit
effect on cellular cytoskeleton (cellular cytoskeleton): melted cytoskeleton
